Here are results for two molecules from ChEMBL document CHEMBL4800732, “Data for DCP probe TP-040” (2021).

“And” between values parts separate entries of the source, which are not always exact repeats. Identical values can stand only once. Some results are limits rather than exact numbers.

Assay [1] deals with D(1B) dopamine receptor (Homo sapiens) (UniProt P21918). The following applies: Compound concentration 10.0 uM.
In assay [2] the target is Mu-type opioid receptor (Homo sapiens) (UniProt P35372). The following applies: Compound concentration 10.0 uM.
Sequence of Mu-type opioid receptor (Homo sapiens) (P35372 whole entry): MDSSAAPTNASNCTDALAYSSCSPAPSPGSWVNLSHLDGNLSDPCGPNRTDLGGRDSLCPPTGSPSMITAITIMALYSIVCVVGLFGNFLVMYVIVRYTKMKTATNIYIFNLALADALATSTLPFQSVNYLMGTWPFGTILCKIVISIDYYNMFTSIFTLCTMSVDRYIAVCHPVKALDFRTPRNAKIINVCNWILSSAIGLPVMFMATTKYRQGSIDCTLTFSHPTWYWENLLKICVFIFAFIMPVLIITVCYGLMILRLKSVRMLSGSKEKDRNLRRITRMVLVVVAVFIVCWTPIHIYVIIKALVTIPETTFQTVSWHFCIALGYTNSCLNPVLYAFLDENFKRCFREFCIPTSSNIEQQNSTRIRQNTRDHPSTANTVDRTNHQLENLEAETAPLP
Assay [3] deals with T1, Histamine H2 receptor (Homo sapiens, UniProt P25021). The following applies: Compound concentration 10.0 uM.
T1 sequence (P25021 whole entry): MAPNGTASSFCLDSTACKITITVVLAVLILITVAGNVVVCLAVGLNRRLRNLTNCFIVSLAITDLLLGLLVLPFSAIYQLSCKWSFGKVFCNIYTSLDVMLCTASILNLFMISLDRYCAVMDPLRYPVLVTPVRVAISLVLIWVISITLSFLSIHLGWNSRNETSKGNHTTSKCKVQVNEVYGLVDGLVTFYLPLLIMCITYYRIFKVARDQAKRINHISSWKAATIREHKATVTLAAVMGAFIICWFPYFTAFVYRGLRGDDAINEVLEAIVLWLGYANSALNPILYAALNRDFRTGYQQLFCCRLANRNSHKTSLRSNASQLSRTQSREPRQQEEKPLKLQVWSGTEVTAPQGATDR
Assay [4] concerns the target GABA-A receptor; anion channel. In words: GPCRScan assay: inhibition of GABAA/BZP. It is filed as protein-complex assay, Rattus norvegicus. Also on record: radioligand conc. used [nm] 0.6 – 4.0, parental cells brain tissue.
Assay [5] concerns the target Muscarinic acetylcholine receptor M1 (Homo sapiens) (UniProt P11229). As to conditions: Compound concentration 10.0 uM; call rule not given here.
In assay [6] the target is T2, 5-hydroxytryptamine receptor 6 (Homo sapiens, UniProt P50406). The following applies: Compound concentration 10.0 uM.
T2 sequence (P50406 whole entry): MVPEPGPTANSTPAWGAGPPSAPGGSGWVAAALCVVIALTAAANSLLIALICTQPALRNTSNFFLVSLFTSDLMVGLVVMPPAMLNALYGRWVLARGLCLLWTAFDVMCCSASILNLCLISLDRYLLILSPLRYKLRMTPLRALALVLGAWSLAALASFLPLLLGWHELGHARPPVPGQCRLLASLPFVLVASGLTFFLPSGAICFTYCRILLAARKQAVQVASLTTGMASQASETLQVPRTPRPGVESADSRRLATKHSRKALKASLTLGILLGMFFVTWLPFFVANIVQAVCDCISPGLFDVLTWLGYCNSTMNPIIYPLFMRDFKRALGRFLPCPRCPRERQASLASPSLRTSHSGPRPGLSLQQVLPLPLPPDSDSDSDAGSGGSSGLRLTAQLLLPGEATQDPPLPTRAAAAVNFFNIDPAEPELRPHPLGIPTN
The target of assay [7] is Beta-hexosaminidase subunit beta (Homo sapiens, UniProt P07686). Kind of assay: Enzymatic HEXB assay.
In assay [8] the target is T3, Alpha-2C adrenergic receptor (Homo sapiens, UniProt P18825).
T3 sequence (P18825 whole entry): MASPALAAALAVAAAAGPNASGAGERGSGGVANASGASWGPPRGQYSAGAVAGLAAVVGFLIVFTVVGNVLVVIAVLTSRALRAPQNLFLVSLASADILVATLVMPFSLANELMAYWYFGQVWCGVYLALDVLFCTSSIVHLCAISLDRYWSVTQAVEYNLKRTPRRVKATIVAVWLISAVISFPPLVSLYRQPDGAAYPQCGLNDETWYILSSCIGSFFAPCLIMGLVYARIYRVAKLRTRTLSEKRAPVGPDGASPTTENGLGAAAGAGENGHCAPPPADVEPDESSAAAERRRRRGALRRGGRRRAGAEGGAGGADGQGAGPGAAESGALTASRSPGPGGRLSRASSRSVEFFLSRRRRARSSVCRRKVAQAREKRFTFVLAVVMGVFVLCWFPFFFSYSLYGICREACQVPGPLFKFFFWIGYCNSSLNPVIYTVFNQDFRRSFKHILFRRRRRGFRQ
In words: GPCRScan assay: inhibition of Alpha2C. Also on record: radioligand conc. used [nm] 0.5 – 1.0, parental cells stable MDCK.

The target of assay [9] is Muscarinic acetylcholine receptor M4 (Homo sapiens) (UniProt P08173). The following applies: Compound concentration 10.0 uM.
Sequence of Muscarinic acetylcholine receptor M4 (Homo sapiens) (P08173 whole entry): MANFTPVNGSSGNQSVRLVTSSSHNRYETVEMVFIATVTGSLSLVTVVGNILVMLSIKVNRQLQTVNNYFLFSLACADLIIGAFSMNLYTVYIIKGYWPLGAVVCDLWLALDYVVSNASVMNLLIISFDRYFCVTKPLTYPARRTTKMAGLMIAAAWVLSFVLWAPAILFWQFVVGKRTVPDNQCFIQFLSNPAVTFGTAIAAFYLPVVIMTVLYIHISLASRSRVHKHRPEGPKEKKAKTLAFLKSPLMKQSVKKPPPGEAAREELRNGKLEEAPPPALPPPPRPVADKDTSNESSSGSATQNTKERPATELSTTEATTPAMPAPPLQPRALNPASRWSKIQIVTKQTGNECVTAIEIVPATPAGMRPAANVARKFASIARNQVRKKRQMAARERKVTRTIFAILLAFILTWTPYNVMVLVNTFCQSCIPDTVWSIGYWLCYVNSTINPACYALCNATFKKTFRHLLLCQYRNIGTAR
The target in assay [10] is Histamine H1 receptor (Homo sapiens) (UniProt P35367). As to conditions: Compound concentration 10.0 uM.
Sequence of Histamine H1 receptor (Homo sapiens) (P35367 whole entry): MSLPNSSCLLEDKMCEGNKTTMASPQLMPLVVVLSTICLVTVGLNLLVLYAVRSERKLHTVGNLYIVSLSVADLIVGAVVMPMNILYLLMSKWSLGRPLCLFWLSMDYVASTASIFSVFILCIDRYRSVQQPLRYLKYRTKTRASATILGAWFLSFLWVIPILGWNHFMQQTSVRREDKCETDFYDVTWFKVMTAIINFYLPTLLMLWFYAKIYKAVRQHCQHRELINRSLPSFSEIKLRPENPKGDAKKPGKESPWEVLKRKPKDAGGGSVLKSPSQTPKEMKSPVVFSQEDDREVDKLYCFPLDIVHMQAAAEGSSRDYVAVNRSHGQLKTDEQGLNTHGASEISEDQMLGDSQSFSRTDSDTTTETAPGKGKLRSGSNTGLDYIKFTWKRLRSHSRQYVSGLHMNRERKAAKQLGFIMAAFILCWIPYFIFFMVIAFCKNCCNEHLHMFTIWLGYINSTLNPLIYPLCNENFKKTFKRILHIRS
Assay [11] has as its target Beta-2 adrenergic receptor (Homo sapiens) (UniProt P07550). As to conditions: Compound concentration 10.0 uM.
For assay [12], the target named is Alpha-1D adrenergic receptor (Homo sapiens) (UniProt P25100). As to conditions: Compound concentration 10.0 uM.
The target in assay [13] is T4, 5-hydroxytryptamine receptor 2C (Homo sapiens, UniProt P28335).
T4 sequence (P28335 whole entry): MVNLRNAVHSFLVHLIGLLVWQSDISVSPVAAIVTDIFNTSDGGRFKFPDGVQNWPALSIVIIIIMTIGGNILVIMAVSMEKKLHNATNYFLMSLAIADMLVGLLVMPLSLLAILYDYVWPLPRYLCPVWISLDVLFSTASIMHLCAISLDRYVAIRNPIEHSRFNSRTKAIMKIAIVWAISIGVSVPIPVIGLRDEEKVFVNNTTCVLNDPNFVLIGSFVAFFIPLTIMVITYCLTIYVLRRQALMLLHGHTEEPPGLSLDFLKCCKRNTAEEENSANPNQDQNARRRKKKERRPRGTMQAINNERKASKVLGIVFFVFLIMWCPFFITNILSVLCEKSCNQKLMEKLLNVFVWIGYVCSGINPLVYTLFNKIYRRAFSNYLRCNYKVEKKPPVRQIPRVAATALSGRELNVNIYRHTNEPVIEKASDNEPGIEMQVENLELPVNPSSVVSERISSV
In words: GPCRScan assay: inhibition of 5-HT2C. Also on record: radioligand conc. used [nm] 1.0 – 2.5, parental cells HEK T.

The target of assay [14] is 5-hydroxytryptamine receptor 2A (Homo sapiens, UniProt P28223). Kind of assay: GPCRScan assay: inhibition of 5-HT2A. Also on record: radioligand conc. used [nm] 1.2 – 2.4, parental cells HEKT.
Assay [15] has as its target T5, Histamine H4 receptor (Homo sapiens, UniProt Q9H3N8). Kind of assay: GPCRScan assay: inhibition of H4. Also on record: radioligand conc. used [nm] 1.0 – 5.0, parental cells HEK T.
Assay [16] concerns the target Sodium-dependent dopamine transporter (Homo sapiens, UniProt Q01959). In words: GPCRScan assay: inhibition of DAT. Also on record: radioligand conc. used [nm] 3.6 – 16.0, parental cells stable HEK.
In assay [17] the target is 5-hydroxytryptamine receptor 7 (Homo sapiens, UniProt P34969). Kind of assay: GPCRScan assay: inhibition of 5-HT7A. Further details: radioligand conc. used [nm] 5.0 – 6.0, parental cells Stable HEK.
Assay [18] deals with T1, Histamine H2 receptor. In words: GPCRScan assay: inhibition of H2. Further details: radioligand conc. used [nm] 0.02 – 0.05, parental cells Stable HEK.
Assay [19] addresses 5-hydroxytryptamine receptor 5A (Homo sapiens, UniProt P47898). In words: GPCRScan assay: inhibition of 5-HT5A. Also on record: radioligand conc. used [nm] 2.0 - 3.3, parental cells Flp-In CHO.
A further assay deals with Histamine H3 receptor (Homo sapiens, UniProt Q9Y5N1). In words: GPCRScan assay: inhibition of H3. Further details: radioligand conc. used [nm] 0.5 – 1.0, parental cells HEK Flp-In.
Sequence of Histamine H3 receptor (Q9Y5N1 whole entry): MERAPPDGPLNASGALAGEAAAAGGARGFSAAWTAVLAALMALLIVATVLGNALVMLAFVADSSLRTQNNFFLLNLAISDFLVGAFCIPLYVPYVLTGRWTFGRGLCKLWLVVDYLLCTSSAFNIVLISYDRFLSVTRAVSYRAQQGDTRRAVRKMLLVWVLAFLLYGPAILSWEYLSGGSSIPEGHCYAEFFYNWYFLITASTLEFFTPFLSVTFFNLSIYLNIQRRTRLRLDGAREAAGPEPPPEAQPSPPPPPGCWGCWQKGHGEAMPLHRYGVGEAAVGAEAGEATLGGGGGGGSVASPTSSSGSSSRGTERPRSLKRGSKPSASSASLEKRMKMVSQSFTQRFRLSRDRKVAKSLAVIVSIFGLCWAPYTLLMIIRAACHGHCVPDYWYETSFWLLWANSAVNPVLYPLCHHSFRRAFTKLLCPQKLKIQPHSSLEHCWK
For assay [20], the target named is T2, 5-hydroxytryptamine receptor 6. Kind of assay: GPCRScan assay: inhibition of 5-HT6. Also on record: radioligand conc. used [nm] 2.0 – 4.0, parental cells stable HEK.
Assay [21] concerns the target Beta-3 adrenergic receptor (Homo sapiens) (UniProt P13945). As to conditions: Compound concentration 10.0 uM.
The target in assay [22] is T5, Histamine H4 receptor. The following applies: Compound concentration 10.0 uM.
For assay [23], the target named is Sigma intracellular receptor 2 (Homo sapiens, UniProt Q5BJF2). In words: GPCRScan assay: inhibition of Sigma 2. Further details: radioligand conc. used [nm] 5.0, parental cells HEKT.
Sequence of Sigma intracellular receptor 2 (Q5BJF2 whole entry): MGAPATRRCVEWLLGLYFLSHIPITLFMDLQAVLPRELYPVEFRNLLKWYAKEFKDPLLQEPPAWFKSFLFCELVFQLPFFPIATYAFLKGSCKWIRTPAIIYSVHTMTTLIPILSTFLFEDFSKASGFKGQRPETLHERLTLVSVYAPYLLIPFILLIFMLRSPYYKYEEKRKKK
The next assay has as its target Protein O-GlcNAcase (Homo sapiens, UniProt O60502). Kind of assay: Enzymatic OGA assay.
Assay [24] has as its target Sigma non-opioid intracellular receptor 1 (Homo sapiens, UniProt Q99720). In words: GPCRScan assay: inhibition of Sigma 1. Also on record: radioligand conc. used [nm] 4.0 – 5.0, parental cells HEKT.

T5 sequence (Q9H3N8 whole entry): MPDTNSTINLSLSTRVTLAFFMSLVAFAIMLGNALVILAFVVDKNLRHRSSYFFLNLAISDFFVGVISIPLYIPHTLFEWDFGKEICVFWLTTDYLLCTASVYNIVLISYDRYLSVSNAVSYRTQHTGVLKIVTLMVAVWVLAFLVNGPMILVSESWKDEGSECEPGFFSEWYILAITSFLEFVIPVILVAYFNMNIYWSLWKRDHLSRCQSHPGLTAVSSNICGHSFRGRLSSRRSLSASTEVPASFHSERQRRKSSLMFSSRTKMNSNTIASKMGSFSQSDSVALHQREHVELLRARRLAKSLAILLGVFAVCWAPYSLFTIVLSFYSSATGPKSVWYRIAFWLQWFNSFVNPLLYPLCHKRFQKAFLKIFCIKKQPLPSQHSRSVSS
Sequence of 5-hydroxytryptamine receptor 5A (P47898 whole entry): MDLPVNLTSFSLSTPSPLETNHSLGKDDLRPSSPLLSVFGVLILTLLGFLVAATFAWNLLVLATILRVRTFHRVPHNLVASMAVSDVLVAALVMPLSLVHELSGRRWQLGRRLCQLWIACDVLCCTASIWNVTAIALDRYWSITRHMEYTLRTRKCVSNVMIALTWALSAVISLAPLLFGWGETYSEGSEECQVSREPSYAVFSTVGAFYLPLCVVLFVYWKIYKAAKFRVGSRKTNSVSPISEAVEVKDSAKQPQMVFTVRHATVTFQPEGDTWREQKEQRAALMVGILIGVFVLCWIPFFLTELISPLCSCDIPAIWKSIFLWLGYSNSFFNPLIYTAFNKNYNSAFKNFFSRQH
Sequence of Beta-2 adrenergic receptor (Homo sapiens) (P07550 whole entry, looked up): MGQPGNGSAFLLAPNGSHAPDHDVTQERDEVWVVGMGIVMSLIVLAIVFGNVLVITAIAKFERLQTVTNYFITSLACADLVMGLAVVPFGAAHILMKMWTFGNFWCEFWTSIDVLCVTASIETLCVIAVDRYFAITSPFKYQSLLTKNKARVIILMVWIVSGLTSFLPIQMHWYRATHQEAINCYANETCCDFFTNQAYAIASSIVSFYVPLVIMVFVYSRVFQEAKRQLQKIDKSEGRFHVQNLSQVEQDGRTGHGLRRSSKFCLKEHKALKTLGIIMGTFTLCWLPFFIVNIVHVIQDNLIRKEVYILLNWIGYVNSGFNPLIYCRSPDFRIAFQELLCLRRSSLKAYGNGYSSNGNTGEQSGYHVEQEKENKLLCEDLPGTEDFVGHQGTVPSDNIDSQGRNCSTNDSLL
Sequence of Sodium-dependent dopamine transporter (Q01959 whole entry): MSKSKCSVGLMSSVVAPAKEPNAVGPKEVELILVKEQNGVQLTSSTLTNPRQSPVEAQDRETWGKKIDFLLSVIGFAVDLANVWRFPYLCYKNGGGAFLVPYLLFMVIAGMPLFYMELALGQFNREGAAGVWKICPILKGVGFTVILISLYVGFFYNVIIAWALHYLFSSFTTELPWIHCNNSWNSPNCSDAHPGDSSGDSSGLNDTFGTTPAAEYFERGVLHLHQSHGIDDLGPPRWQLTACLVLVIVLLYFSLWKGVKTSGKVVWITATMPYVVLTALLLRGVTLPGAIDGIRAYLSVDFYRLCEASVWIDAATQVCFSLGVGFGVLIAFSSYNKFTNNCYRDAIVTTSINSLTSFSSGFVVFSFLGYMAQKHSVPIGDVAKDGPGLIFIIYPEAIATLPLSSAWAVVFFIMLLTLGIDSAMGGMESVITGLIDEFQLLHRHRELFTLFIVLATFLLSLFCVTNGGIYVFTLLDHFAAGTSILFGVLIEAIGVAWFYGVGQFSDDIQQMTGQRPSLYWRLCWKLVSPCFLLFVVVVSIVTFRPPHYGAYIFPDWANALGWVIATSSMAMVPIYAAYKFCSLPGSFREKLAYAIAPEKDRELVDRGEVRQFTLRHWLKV
Sequence of Sigma non-opioid intracellular receptor 1 (Q99720 whole entry): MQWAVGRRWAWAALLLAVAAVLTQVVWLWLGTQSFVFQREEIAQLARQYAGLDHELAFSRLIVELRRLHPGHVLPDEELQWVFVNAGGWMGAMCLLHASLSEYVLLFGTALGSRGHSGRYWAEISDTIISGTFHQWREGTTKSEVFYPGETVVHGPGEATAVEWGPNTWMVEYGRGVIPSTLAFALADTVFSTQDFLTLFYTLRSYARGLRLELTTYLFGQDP

`CC1CCN(c2ccnc(NCc3cn(C)cn3)n2)CC1` [TP-040]: the inhibition in assay [1] was 5.03%; in [2], 10.8%; at Histamine H2 receptor [3], 28.6%; in assay [5] it was 17.2%; in assay [6], 32.1%; in [9], 20.6%. The inhibition is 40.1% in assay [10], -3.61% in [11] and 25.1% in assay [12]. Besides, the Ki is 512 nM in assay [4]; 3430 nM in assay [8] (read-out: Ki); 3390 nM in [8] (read-out: pKi (converted)); 374 nM in [13] (read-out: Ki); 363 nM in assay [13] (read-out: pKi (converted)). Further, the IC50 in assay [7] was > 10000 nM (not active).
In the case of `CN1CCN(c2ccnc(NCCc3ccccc3)n2)CC1` [TP-040n], the Ki in [14] (read-out: Ki) was 758 nM; in [14] (read-out: pKi (converted)), 692 nM; at Histamine H4 receptor [15] (read-out: Ki) it was 712 nM and 703 nM; on Histamine H4 receptor [15] (read-out: pKi (converted)), 692 nM; in [16] (read-out: Ki), 865 nM; in [16] (read-out: pKi (converted)), 832 nM. In addition, the Ki was 335 nM in assay [17]; 414 nM in assay [8] (read-out: Ki); 407 nM in assay [8] (read-out: pKi (converted)); 149 nM on Histamine H2 receptor [18] (read-out: Ki); 145 nM on Histamine H2 receptor [18] (read-out: pKi (converted)); 6130 nM in assay [19] (read-out: Ki). Besides, the Ki in assay [19] (read-out: pKi (converted)) was 5130 nM; on Histamine H3 receptor (read-out: Ki) it was 92.8 nM and 99.6 nM; at Histamine H3 receptor (read-out: pKi (converted)) it was 81.3 nM; in assay [20] it was 606 nM; in assay [23] (read-out: Ki), 1460 nM; in assay [23] (read-out: pKi (converted)) it was 1450 nM. The Ki in assay [24] (read-out: Ki) was 125 nM; in assay [24] (read-out: pKi (converted)) it was 123 nM; in assay [13] (read-out: Ki) it was 267 nM; in assay [13] (read-out: pKi (converted)), 257 nM. The inhibition was 25.9% in [2]; 95.6% at Histamine H2 receptor [3]; 18.6% in [5]; 80.4% in assay [6]; 25.9% in assay [9]; 41.6% in assay [10]. Besides, the inhibition is -3.49% in [11], 26% in assay [12], 2.45% in assay [21] and 82.8% at Histamine H4 receptor [22]. Besides, on Protein O-GlcNAcase, the IC50 was > 10000 nM (not active).
